Target: T1, AHR (Homo sapiens, UniProt P35869)
T1 construct: other cell line with a DRE-luciferase reporter stably transfected; endogenous in cells; host or cells: HepG2 AhR-Lucia reporter cells
T1 sequence (P35869 11-848): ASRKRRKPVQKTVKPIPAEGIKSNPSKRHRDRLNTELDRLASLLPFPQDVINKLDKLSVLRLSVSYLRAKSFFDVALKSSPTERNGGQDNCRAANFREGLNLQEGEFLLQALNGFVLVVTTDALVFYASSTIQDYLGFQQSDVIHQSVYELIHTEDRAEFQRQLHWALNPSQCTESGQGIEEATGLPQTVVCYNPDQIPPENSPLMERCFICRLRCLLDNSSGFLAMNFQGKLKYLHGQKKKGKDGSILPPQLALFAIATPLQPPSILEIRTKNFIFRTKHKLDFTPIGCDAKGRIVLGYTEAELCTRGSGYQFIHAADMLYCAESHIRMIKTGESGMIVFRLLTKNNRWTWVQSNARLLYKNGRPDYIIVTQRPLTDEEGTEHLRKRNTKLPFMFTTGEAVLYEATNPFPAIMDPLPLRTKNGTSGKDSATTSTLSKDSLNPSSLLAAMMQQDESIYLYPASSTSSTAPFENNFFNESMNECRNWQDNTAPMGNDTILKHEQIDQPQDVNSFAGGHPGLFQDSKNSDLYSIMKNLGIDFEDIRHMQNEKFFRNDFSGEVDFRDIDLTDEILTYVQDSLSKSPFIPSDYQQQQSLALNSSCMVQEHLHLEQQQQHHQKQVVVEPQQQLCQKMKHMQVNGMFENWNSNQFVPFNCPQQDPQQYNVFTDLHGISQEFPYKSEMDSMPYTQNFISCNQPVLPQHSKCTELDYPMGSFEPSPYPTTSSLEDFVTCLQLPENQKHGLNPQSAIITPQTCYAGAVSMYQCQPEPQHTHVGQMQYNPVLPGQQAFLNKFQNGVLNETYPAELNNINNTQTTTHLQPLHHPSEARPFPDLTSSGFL
Assay: DRE-Luciferase Reporter Assay, HepG2 AhR-Lucia reporter cells
Assay type: cell-based
Conditions: with AHR activating ligand at EC50, read-out: HepG2-Luc IC50
Source text: AHR binds to Dioxin Responsive Elements (DRE) upstream of genes that it activates. One measure of AHR activity is activation of a reporter gene, such as luciferase, downstream of one or multiple DRE elements. Luciferase activity will reflect activation and inhibition of AHR in the cells expressing his reporter. 20000 Human HepG2 liver carcinoma—AhR-Lucia reporter cells or Human HT29 colon adenocarcinoma—AhR reporter cells or other cell line with a DRE-luciferase reporter stably transfected were plated in Eagle's Minimal Essential Medium, 10% heat-inactivated FBS, 1× non-essential amino acids Pen-Strep (10,000 U/mL) and Normocin (100 ug/mL) in plates (96-well, 384-well or other plates) and incubated overnight at 37° C. in a CO2 incubator and treated with and without AhR antagonists at a log dilution starting at 100 uM.
After 1 hr that cells were plated an AHR activating ligand, such as TCDD, kynurenine, ITE (2-(1H-indole-3-ylcarbonyl)-4-thiazolecarboxylic methyl ester), VAF347, BNF (beta-naphthoflavone), FICZ (6-formylindolo(3,2-b) carbazole) or other AHR ligands at their specific EC50 concentration, were added to the cells with or without AHR antagonist.
Cells were incubated for 24 or 48 hours or another time point and then, supernatant was analyzed for determination of luciferase activity as a read-out of the AHR activation or inhibition. Luciferase was measured with the commercial kit QUANTI-Luc™ assay solution kit from Invivogen following the manufacturer's instructions.
The level of luciferase with only agonist ligand added was the maximum signal while the luciferase with […] was the minimum signal. IC50 values were determined as the concentration which inhibits half of the luciferase activity.

SMILES: Cn1cc(-c2nc(-c3ccc(C(F)(F)F)cn3)cc3c(=O)n([C@@H]4COC[C@H]4O)cnc23)cn1 [Compound 138, 3-((3R,4S)-4-hydroxytetrahydrofuran-3-yl)-8-(1-methyl-1H-pyrazol-4-yl)-6-(5-(trifluoromethyl)pyridin-2-yl)pyrido[3,4-d]pyrimidin-4(3H)-one]
- IC50: < 100 nM

SMILES: C[C@@H](O)Cn1cnc2c(-c3cnn(C)c3)nc(-c3ccc(C(F)(F)F)cn3)cc2c1=O [Compound 141, (R)-3-(2-hydroxypropyl)-8-(1-methyl-1H-pyrazol-4-yl)-6-(5-(trifluoromethyl)pyridin-2-yl)pyrido[3,4-d]pyrimidin-4(3H)-one]
- IC50: < 100 nM

SMILES: Cn1cc(-c2nc(-c3ccc(C(F)(F)F)cn3)cc3c(=O)n(C[C@@H](O)C(F)(F)F)cnc23)cn1 [Compound 146]
- IC50: < 100 nM

SMILES: Cn1cc(-c2nc(-c3ccc(C(F)(F)F)cn3)cc3c(=O)n(C[C@H](O)C(F)(F)F)cnc23)cn1 [Compound 147]
- IC50: < 100 nM

SMILES: Cn1cc(-c2nc(-c3ccc(C(F)(F)F)cn3)cc3c(=O)n([C@@H]4COC[C@@H]4O)cnc23)cn1 [Compound 149, 3-((3R,4R)-4-hydroxytetrahydrofuran-3-yl)-8-(1-methyl-1H-pyrazol-4-yl)-6-(5-(trifluoromethyl)pyridin-2-yl)pyrido[3,4-d]pyrimidin-4(3H)-one]
- IC50: < 100 nM

SMILES: Cn1cc(-c2nc(-c3ccc(Cl)cc3)cc3c(=O)n([C@@H]4COC[C@H]4O)cnc23)cn1 [Compound 153, 6-(4-Chlorophenyl)-3-((3R,4S)-4-hydroxytetrahydrofuran-3-yl)-8-(1-methyl-1H-pyrazol-4-yl)pyrido[3,4-d]pyrimidin-4(3H)-one]
- IC50: < 100 nM

SMILES: C[C@@H](C(=O)O)n1cnc2c(-c3cccnc3)nc(-c3ccc(C(F)(F)F)nc3)cc2c1=O [Compound 155, (S)-2-(4-oxo-8-(pyridin-3-yl)-6-(6-(trifluoromethyl)pyridin-3-yl)pyrido[3,4-d]pyrimidin-3(4H)-yl)propanoic acid]
- IC50: > 500 nM

SMILES: C[C@@H](C(=O)N(C)C)n1cnc2c(-c3cccnc3)nc(-c3ccc(C(F)(F)F)nc3)cc2c1=O [Compound 157, (S)—N,N-dimethyl-2-(4-oxo-8-(pyridin-3-yl)-6-(6-(trifluoromethyl)pyridin-3-yl)pyrido[3,4-d]pyrimidin-3(4H)-yl)propenamide]
- IC50: < 100 nM

SMILES: C[C@@H](C(=O)N[C@@H]1COC[C@H]1O)n1cnc2c(-c3cccnc3)nc(-c3ccc(C(F)(F)F)nc3)cc2c1=O [Compound 158, (S)—N-((3R,4S)-4-hydroxytetrahydrofuran-3-yl)-2-(4-oxo-8-(pyridin-3-yl)-6-(6-(trifluoromethyl)pyridin-3-yl)pyrido[3,4-d]pyrimidin-3(4H)-yl)propenamide]
- IC50: 100 to 500 nM

SMILES: CC(C)(O)Cn1cnc2c(-c3cn[nH]c3)nc(-c3ccc(C(F)(F)F)cn3)cc2c1=O [Compound 159, 3-(2-hydroxy-2-methylpropyl)-8-(1H-pyrazol-4-yl)-6-(5-(trifluoromethyl)pyridin-2-yl)pyrido[3,4-d]pyrimidin-4(3H)-one]
- IC50: < 100 nM

SMILES: C[C@@H](CO)n1cnc2c(-n3cncn3)nc(-c3ccc(C(F)(F)F)nc3)cc2c1=O [Compound 164, (S)-3-(1-hydroxypropan-2-yl)-8-(1H-1,2,4-triazol-1-yl)-6-(6-(trifluoromethyl)pyridin-3-yl)pyrido[3,4-d]pyrimidin-4(3H)-one]
- IC50: 100 to 500 nM

SMILES: C[C@@H](CO)n1cnc2c(-n3cccn3)nc(-c3ccc(C(F)(F)F)nc3)cc2c1=O [Compound 165, (S)-3-(1-hydroxypropan-2-yl)-8-(1H-pyrazol-1-yl)-6-(6-(trifluoromethyl)pyridin-3-yl)pyrido[3,4-d]pyrimidin-4(3H)-one]
- IC50: < 100 nM

SMILES: C[C@@H](CO)n1cnc2c(-n3cccn3)nc(-c3ccc(Cl)cc3)cc2c1=O [Compound 166, (S)-6-(4-chlorophenyl)-3-(1-hydroxypropan-2-yl)-8-(1H-pyrazol-1-yl)pyrido[3,4-d]pyrimidin-4(3H)-one]
- IC50: < 100 nM

Reference: patent US20230295152A1 (SENDA BIOSCIENCES, INC., priority 2019, published 2023)
